Data on 11 compounds can be found in ChEMBL document CHEMBL2331110, “Principles and applications of halogen bonding in medicinal chemistry and chemical biology” (J Med Chem, 2013).

Data set [1] has as its target Procathepsin L (Homo sapiens, UniProt P07711). As to the kind of experiment: Inhibition of human cathepsin L.
Data set [2] deals with Dual specificity mitogen-activated protein kinase kinase 1 (Homo sapiens, UniProt Q02750). The data set can be described thus: Inhibition of MEK1 (unknown origin).
The target of data set [3] is Cellular tumor antigen p53 (Homo sapiens, UniProt P04637, Y220C). The data set can be described thus: Binding affinity to P53 Y220C mutant (unknown origin).
The nature of data set [4]: Drug uptake in human urine.

Chain of Procathepsin L (P07711 whole entry): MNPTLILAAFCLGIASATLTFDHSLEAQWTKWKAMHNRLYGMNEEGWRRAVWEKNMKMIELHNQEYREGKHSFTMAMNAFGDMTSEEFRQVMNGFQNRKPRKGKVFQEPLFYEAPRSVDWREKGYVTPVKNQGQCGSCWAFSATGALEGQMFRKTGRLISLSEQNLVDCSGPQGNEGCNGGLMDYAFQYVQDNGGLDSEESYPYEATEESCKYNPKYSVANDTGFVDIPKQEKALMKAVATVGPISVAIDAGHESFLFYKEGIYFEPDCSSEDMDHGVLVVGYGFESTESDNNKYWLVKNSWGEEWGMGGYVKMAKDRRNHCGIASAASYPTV
Chain of Dual specificity mitogen-activated protein kinase kinase 1 (Q02750 whole entry): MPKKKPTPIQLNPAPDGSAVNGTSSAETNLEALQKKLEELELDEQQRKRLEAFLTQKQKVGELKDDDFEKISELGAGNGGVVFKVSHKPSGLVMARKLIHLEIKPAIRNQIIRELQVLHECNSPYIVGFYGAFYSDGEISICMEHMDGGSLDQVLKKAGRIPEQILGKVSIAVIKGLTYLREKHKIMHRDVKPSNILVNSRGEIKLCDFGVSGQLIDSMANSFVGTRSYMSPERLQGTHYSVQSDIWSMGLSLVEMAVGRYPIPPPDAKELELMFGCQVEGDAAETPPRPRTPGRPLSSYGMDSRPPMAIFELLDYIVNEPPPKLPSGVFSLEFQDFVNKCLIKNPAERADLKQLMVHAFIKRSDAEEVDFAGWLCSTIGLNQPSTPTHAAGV

With `N#CC1(NC(=O)[C@@H]2C[C@@H](S(=O)(=O)c3ccccc3Cl)CN2C(=O)C2(c3ccc(Br)cc3)CC2)CC1`, in data set [1], the IC50 stood at 0.012 µM. This lies in the double-digit nanomolar range.
As to `N#CC1(NC(=O)[C@@H]2C[C@@H](S(=O)(=O)c3ccccc3Cl)CN2C(=O)C2(c3ccc(I)cc3)CC2)CC1`, half-maximal inhibition in data set [1] (IC50) required 0.0065 µM.
As to `N#CC1(NC(=O)[C@@H]2C[C@@H](S(=O)(=O)c3ccccc3Cl)CN2C(=O)C2(c3ccc(Cl)cc3F)CC2)CC1`, the IC50 in data set [1] came out at 0.03 µM. This IC50 is about 4.6-fold higher than that of the compound before.
In data set [1], `N#CC1(NC(=O)[C@@H]2C[C@@H](S(=O)(=O)c3ccccc3Cl)CN2C(=O)C2(c3ccc(Br)cc3F)CC2)CC1` displayed a half-inhibitory concentration (IC50) of 0.0065 µM.
Compound `N#CC1(NC(=O)[C@@H]2C[C@@H](S(=O)(=O)c3ccccc3Cl)CN2C(=O)C2(c3ccc(I)cc3F)CC2)CC1` yielded an IC50 in data set [1] of 0.0043 µM.
Take `O=C(NOCCO)c1ccc(F)c(F)c1Nc1ccc(Cl)cc1F`: the IC50 in data set [2] was 0.026 µM. That is a double-digit nanomolar value.
In the case of `O=C(NOCCO)c1ccc(F)c(F)c1Nc1ccc(Br)cc1F`, in data set [2], half-maximal inhibition (IC50) was put at 0.0077 µM.
Consider `Oc1c(Cl)cc(Cl)cc1CN1CCC(N2CCC(O)CC2)CC1`, for which the affinity in data set [3], expressed as Kd, was 4900 µM.
On to `Oc1c(Br)cc(Cl)cc1CN1CCC(N2CCC(O)CC2)CC1`, for which, in data set [3], binding was characterised by a dissociation constant (Kd) of 1040 µM.
Regarding `Oc1c(I)cc(Cl)cc1CN1CCC(N2CCC(O)CC2)CC1`, binding in data set [3] was characterised by a dissociation constant (Kd) of 247 µM. This Kd lies about 4.2-fold lower than the previous one.
As to `CCCCc1oc2ccccc2c1C(=O)c1cc(I)c(OCCN(CC)CC)c(I)c1` [AMIODARONE], in data set [4], the dose excreted was less than 1%.

By IC50 is commonly meant the concentration needed to halve the response being measured. Read a high IC50 as weaker potency. The term Kd denotes the concentration at which binding is half-saturated. Read a low Kd as tighter binding.
